# Measured values as given in patent publication US20250333805A1, “HERICIUM ERINACEUS STRAIN HE015, MOLECULAR MARKERS AND USES THEREOF” (INFINITUS (CHINA) COMPANY LTD., priority 2024, published 2025).
# Test system: mice with chronic alcohol-induced gastric mucosal damage
# Experiment: Chronic alcohol-induced gastric mucosal damage mice model (60% ethanol intragastrically): body weight, survival, HE staining of gastric tissue
# Type: in vivo, Male KM mice
# Settings: for body weight of the mice at the end of the experiment, compared with Model: extracts 10 mg/mL, Lansoprazole 0.35 mg/mL, 0.3 mL intragastrically once daily for 2 weeks, 60% ethanol in second week, P<0.05 where significant
# Method: Male KM mice, SPF grade, body weight of 18-22 g, 5-6 weeks of age, feeding temperature and humidity: 23±1° C. and 55±10%; 12 h day-and-night discontinuous illumination was used; conditions of the raising room were always kept stable, thereby ensuring the reliability of the test result. The mice took food and drank water freely.
# Male KM mice were adaptively raised for 7 d, and then randomly divided into the following 8 groups: • Blank control group 1: Control • Model control group 1: Model • Administration group 1: Positive • Administration group 2: HEF • Administration group 3: HEFP • Administration group 4: HEFX • Administration group 5: HESP • Administration group 6: HESX.
# There were 14 mice in the Model group, and 13 mice in the other groups, and the mice were fed with an ordinary fodder.
# Experimental duration is 2 weeks:
# First week: the mice in each administration group were prophylactically administered intragastrically once every day; and its administration concentration is shown in Table 9; meanwhile, the mice in the Control and Model groups were administered 0.3 mL of pure water intragastrically.
# Second week: the mice in the Model and each administration groups were administered 0.3 mL of 60% ethanol intragastrically once per day for modeling, to induce a chronic alcohol-induced gastric mucosal damage mice model, and modeling was performed for a week; meanwhile, the mice in the administration groups were administered (administration concentration and dosage were the same as those in the first week), the protective effects of different administration groups on gastric mucosa were observed.
# Administration was stopped the night before the end of the experiment; the mice were not allowed to take food, but allowed to drink water. Eyeballs were picked out and blood was collected, and then the mice were killed by cervical dislocation; gastric tissues were taken and placed into 4% paraformaldehyde stationary solution for immobilization, for use in pathological examination.
structure (smiles),measurement,setting,value
"Cc1c(OCC(F)(F)F)ccnc1C[S+]([O-])c1nc2ccccc2[nH]1 (stereo not drawn) [Positive, Lansoprazole]","body weight of the mice at the end of the experiment, compared with Model",FIG. 5A,significantly greater than that in the Model
same,"body weight of the mice at the end of the experiment, compared with Model","FIG. 5A, listed as Lansoprazole",may increase the body weight
same,death count of the mice at the end of the experiment,"same regimen, compared with other groups, FIG. 5B",obviously higher than that in other groups
same,HE staining of mice gastric tissues (gastric mucosa morphology),"same regimen, gastric tissue at end of experiment, FIG. 6","necrosis exfoliation of partial mucosal epithelial cells of the gastric tissue, loose arrangement of partial cells and infiltration of a small amount of inflammatory cells"
same,"survival rate of the mice at the end of the experiment, compared with Model","same regimen, survival curve FIG. 5B",slightly higher than that of the Model group
same,"body weight of the mice during modeling, compared with Control","second week, 60% ethanol modeling, P<0.01, FIG. 5A",lower than that in the Control
